The subject of experiment [1] is Cabbage Looper (Trichoplusia ni) ("CL"), second instar larvae. The experiment in a line: Bioassay on cabbage looper (CL), 128-well diet tray assay. It is filed as in vivo. The settings on record: Trichoplusia ni, read-out: CL (Biological Results, rating). An outline of the steps: (§1)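 Sealed trays, 25° C., 14:10 light:dark, 5–7 d. Per-well % mortality recorded, mean of eight wells reported.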

The test system of experiment [2] is Beet Armyworm (Spodoptera exigua) ("BAW"), second instar larvae. The experiment in a line: Bioassay on beet armyworm (BAW), 128-well diet tray assay. It is filed as in vivo. The settings on record: Spodoptera exigua, read-out: BAW (Biological Results, rating). An outline of the steps:
as §1

Take `COc1ccc(C(C)C)c(N2C(=O)CS/C2=N\C(=O)Nc2ccc(-c3ncn(-c4ccc(OC(F)(F)F)cn4)n3)cc2C#N)c1` [Compound J268, (Z)-1-(2-Cyano-4-(1-(5-(trifluoromethoxy)pyridin-2-yl)-1H-1,2,4-triazol-3-yl)phenyl)-3-(3-(2-isopropyl-5-methoxyphenyl)-4-oxothiazolidin-2-ylidene)urea]: the pest or weed control at 50 µg/cm2 in experiment [1] and in experiment [2] was 50 to 100% throughout.
With `CCCc1ccc(N(C)C)cc1N1C(=O)CS/C1=N\C(=O)Nc1ccc(-c2ncn(-c3ccc(OC(F)(F)F)cn3)n2)cc1C#N` [Compound J269, (Z)-1-(2-Cyano-4-(1-(5-(trifluoromethoxy)pyridin-2-yl)-1H-1,2,4-triazol-3-yl)phenyl)-3-(3-(5-(dimethylamino)-2-propylphenyl)-4-oxothiazolidin-2-ylidene)urea], the pest or weed control at 50 µg/cm2 in experiment [1] and in experiment [2] was 50 to 100% in each case.
Regarding `Cc1ccc(C(C)C)c(N2C(=O)CS/C2=N\C(=O)Nc2ccc(-c3ncn(-c4ccc(OC(F)(F)F)cn4)n3)cc2F)c1` [Compound J270, (Z)-1-(2-Fluoro-4-(1-(5-(trifluoromethoxy)pyridin-2-yl)-1H-1,2,4-triazol-3-yl)phenyl)-3-(3-(2-isopropyl-5-methylphenyl)-4-oxothiazolidin-2-ylidene)urea], the pest or weed control at 50 µg/cm2 in experiment [1] and in experiment [2] was 50 to 100% in each case.
Turning to `Cc1ccc(C(F)(F)F)c(N2C(=O)CS/C2=N\C(=O)Nc2ccc(-c3ncn(-c4ccc(OC(F)(F)F)cn4)n3)cc2F)c1` [Compound J271, (Z)-1-(2-Fluoro-4-(1-(5-(trifluoromethoxy)pyridin-2-yl)-1H-1,2,4-triazol-3-yl)phenyl)-3-(3-(5-methyl-2-(trifluoromethyl)phenyl)-4-oxothiazolidin-2-ylidene)urea], the pest or weed control at 50 µg/cm2 in experiment [1] and in experiment [2] was 50 to 100% throughout.
Turning to `CCCc1ccc(C)cc1N1C(=O)CS/C1=N\C(=O)Nc1ccc(-c2ncn(-c3ccc(OC(F)(F)F)cn3)n2)cc1F` [Compound J272, (Z)-1-(2-Fluoro-4-(1-(5-(trifluoromethoxy)pyridin-2-yl)-1H-1,2,4-triazol-3-yl)phenyl)-3-(3-(5-methyl-2-propylphenyl)-4-oxothiazolidin-2-ylidene)urea], the pest or weed control at 50 µg/cm2 in experiment [1] and in experiment [2] was 50 to 100% throughout.
Take `Cc1ccc(OCCC(F)(F)F)c(N2C(=O)CS/C2=N\C(=O)Nc2ccc(-c3ncn(-c4ccc(OC(F)(F)F)cn4)n3)cc2C(F)(F)F)c1` [Compound J273, (Z)-1-(3-(5-Methyl-2-(3,3,3-trifluoropropoxy)phenyl)-4-oxothiazolidin-2-ylidene)-3-(4-(1-(5-(trifluoromethoxy)pyridin-2-yl)-1H-1,2,4-triazol-3-yl)-2-(trifluoromethyl)phenyl)urea]: the pest or weed control at 50 µg/cm2 in experiment [1] and in experiment [2] was 50 to 100% each time.
For the compound `Cc1ccc(COCC(F)(F)F)c(N2C(=O)CS/C2=N\C(=O)Nc2ccc(-c3ncn(-c4ccc(OC(F)(F)F)cn4)n3)cc2C(F)(F)F)c1` [Compound J274, (Z)-1-(3-(5-Methyl-2-((2,2,2-trifluoroethoxy)methyl)phenyl)-4-oxothiazolidin-2-ylidene)-3-(4-(1-(5-(trifluoromethoxy)pyridin-2-yl)-1H-1,2,4-triazol-3-yl)-2-(trifluoromethyl)phenyl)urea], the pest or weed control at 50 µg/cm2 in experiment [1] and in experiment [2] was 50 to 100% in each case.
For the compound `CC(C)c1ccc(N(C)C)cc1N1C(=O)CS/C1=N\C(=O)Nc1ccc(-c2ncn(-c3ccc(OC(F)(F)F)cn3)n2)cc1C(F)(F)F` [Compound J275, (Z)-1-(3-(5-(Dimethylamino)-2-isopropylphenyl)-4-oxothiazolidin-2-ylidene)-3-(4-(1-(5-(trifluoromethoxy)pyridin-2-yl)-1H-1,2,4-triazol-3-yl)-2-(trifluoromethyl)phenyl)urea], the pest or weed control at 50 µg/cm2 in experiment [1] and in experiment [2] was 50 to 100% each time.
Consider `COC(C)c1ccc(C)cc1N1C(=O)CS/C1=N\C(=O)Nc1ccc(-c2ncn(-c3ccc(OC(F)(F)F)cn3)n2)cc1C(F)(F)F` (stereo not shown) [Compound J276, (Z)-1-(3-(2-(1-Methoxyethyl)-5-methylphenyl)-4-oxothiazolidin-2-ylidene)-3-(4-(1-(5-(trifluoromethoxy)pyridin-2-yl)-1H-1,2,4-triazol-3-yl)-2-(trifluoromethyl)phenyl)urea], for which the pest or weed control at 50 µg/cm2 in experiment [1] and in experiment [2] was 50 to 100% in each case.
In the case of `COc1ccc(C(C)C)c(N2C(=O)CS/C2=N\C(=O)Nc2ccc(-c3ncn(-c4ccc(OC(F)(F)F)cn4)n3)cc2C(F)(F)F)c1` [Compound J277, (Z)-1-(3-(2-Isopropyl-5-methoxyphenyl)-4-oxothiazolidin-2-ylidene)-3-(4-(1-(5-(trifluoromethoxy)pyridin-2-yl)-1H-1,2,4-triazol-3-yl)-2-(trifluoromethyl)phenyl)urea], the pest or weed control at 50 µg/cm2 in experiment [1] and in experiment [2] was 50 to 100% each time.
Take `CCCc1ccc(N(C)C)cc1N1C(=O)CS/C1=N\C(=O)Nc1ccc(-c2ncn(-c3ccc(OC(F)(F)F)cn3)n2)cc1C(F)(F)F` [Compound J278, (Z)-1-(3-(5-(Dimethylamino)-2-propylphenyl)-4-oxothiazolidin-2-ylidene)-3-(4-(1-(5-(trifluoromethoxy)pyridin-2-yl)-1H-1,2,4-triazol-3-yl)-2-(trifluoromethyl)phenyl)urea]: the pest or weed control at 50 µg/cm2 in experiment [1] and in experiment [2] was 50 to 100% in each case.
Turning to `Cc1ccc(C(C)C)c(N2C(=O)CS/C2=N\C(=O)Nc2ccc(-c3ncn(-c4ccc(C(F)(F)F)cn4)n3)cc2F)c1` [Compound J279, (Z)-1-(2-Fluoro-4-(1-(5-(trifluoromethyl)pyridin-2-yl)-1H-1,2,4-triazol-3-yl)phenyl)-3-(3-(2-isopropyl-5-methylphenyl)-4-oxothiazolidin-2-ylidene)urea], the pest or weed control at 50 µg/cm2 in experiment [1] and in experiment [2] was 50 to 100% in each case.
As to `COC(C)c1ccc(C)cc1N1C(=O)CS/C1=N\C(=O)Nc1ccc(-c2ncn(-c3ccc(C(F)(F)F)cn3)n2)cc1F` (stereo not shown) [Compound J280, (Z)-1-(2-Fluoro-4-(1-(5-(trifluoromethyl)pyridin-2-yl)-1H-1,2,4-triazol-3-yl)phenyl)-3-(3-(2-(1-methoxyethyl)-5-methylphenyl)-4-oxothiazolidin-2-ylidene)urea], the pest or weed control at 50 µg/cm2 in experiment [1] and in experiment [2] was 50 to 100% throughout.
Take `Cc1ccc(COCC(F)(F)F)c(N2C(=O)CS/C2=N\C(=O)Nc2ccc(-c3ncn(-c4ccc(C(F)(F)F)cn4)n3)cc2F)c1` [Compound J281, (Z)-1-(2-Fluoro-4-(1-(5-(trifluoromethyl)pyridin-2-yl)-1H-1,2,4-triazol-3-yl)phenyl)-3-(3-(5-methyl-2-((2,2,2-trifluoroethoxy)methyl)phenyl)-4-oxothiazolidin-2-ylidene)urea]: the pest or weed control at 50 µg/cm2 in experiment [1] and in experiment [2] was 50 to 100% throughout.
For `CCCc1ccc(N(C)C)cc1N1C(=O)CS/C1=N\C(=O)Nc1ccc(-c2ncn(-c3ccc(C(F)(F)F)cn3)n2)cc1F` [Compound J282, (Z)-1-(3-(5-(Dimethylamino)-2-propylphenyl)-4-oxothiazolidin-2-ylidene)-3-(2-fluoro-4-(1-(5-(trifluoromethyl)pyridin-2-yl)-1H-1,2,4-triazol-3-yl)phenyl)urea], the pest or weed control at 50 µg/cm2 in experiment [1] and in experiment [2] was 50 to 100% throughout.
On to `COc1ccc(C(C)C)c(N2C(=O)CS/C2=N\C(=O)Nc2ccc(-c3ncn(-c4ccc(C(F)(F)F)cn4)n3)cc2F)c1` [Compound J283, (Z)-1-(2-fluoro-4-(1-(5-(trifluoromethyl)pyridin-2-yl)-1H-1,2,4-triazol-3-yl)phenyl)-3-(3-(2-isopropyl-5-methoxyphenyl)-4-oxothiazolidin-2-ylidene)urea], for which the pest or weed control at 50 µg/cm2 in experiment [1] and in experiment [2] was 50 to 100% each time.
In the case of `Cc1ccc(C(C)C)c(N2C(=O)CS/C2=N\C(=O)Nc2ccc(-c3ncn(-c4ccc(C(F)(F)F)cn4)n3)cc2C)c1` [Compound J284, (Z)-1-(3-(2-Isopropyl-5-methylphenyl)-4-oxothiazolidin-2-ylidene)-3-(2-methyl-4-(1-(5-(trifluoromethyl)pyridin-2-yl)-1H-1,2,4-triazol-3-yl)phenyl)urea], the pest or weed control at 50 µg/cm2 in experiment [1] and in experiment [2] was 50 to 100% each time.
As to `Cc1cc(-c2ncn(-c3ccc(C(F)(F)F)cn3)n2)ccc1NC(=O)/N=C1\SCC(=O)N1c1cc(N(C)C)ccc1C(C)C` [Compound J285, (Z)-1-(3-(5-(Dimethylamino)-2-isopropylphenyl)-4-oxothiazolidin-2-ylidene)-3-(2-methyl-4-(1-(5-(trifluoromethyl)pyridin-2-yl)-1H-1,2,4-triazol-3-yl)phenyl)urea], the pest or weed control at 50 µg/cm2 in experiment [1] and in experiment [2] was 50 to 100% throughout.
As for `COC(C)c1ccc(C)cc1N1C(=O)CS/C1=N\C(=O)Nc1ccc(-c2ncn(-c3ccc(C(F)(F)F)cn3)n2)cc1C` (stereo not shown) [Compound J286, (Z)-1-(3-(2-(1-Methoxyethyl)-5-methylphenyl)-4-oxothiazolidin-2-ylidene)-3-(2-methyl-4-(1-(5-(trifluoromethyl)pyridin-2-yl)-1H-1,2,4-triazol-3-yl)phenyl)urea], the pest or weed control at 50 µg/cm2 in experiment [1] and in experiment [2] was 50 to 100% each time.
With `CC(C)c1ccc(N(C)C)cc1N1C(=O)CS/C1=N\C(=O)Nc1ccc(-c2ncn(-c3ccc(C#N)cc3)n2)cc1F` [Compound J290, (Z)-1-(4-(1-(4-Cyanophenyl)-1H-1,2,4-triazol-3-yl)-2-fluorophenyl)-3-(3-(5-(dimethylamino)-2-isopropylphenyl)-4-oxothiazolidin-2-ylidene)urea], the pest or weed control at 50 µg/cm2 in experiment [1] and in experiment [2] was 50 to 100% in each case.

(Values after patent publication US20230077362A1 (CORTEVA AGRISCIENCE LLC, priority 2019, published 2023).)
